Legend:
normal mice = assay: Treadmill endurance test in normal mice; format: in vivo; settings: 55 mg/kg/day in food, 6 weeks of treatment (FIG. 49)
Experimental: Normal 8-week-old mice were acclimated for 2 weeks prior to the start of the study. Mice were fed with a standard rodent diet (chow diet) or a diet containing urolithin A mixed with the food to reach a dosing of 55 mg/kg/day delivered to the mice. Following 6 weeks of treatment, mice were tested for their muscle performance by means of an endurance test.
An endurance test was performed using a variable speed belt treadmill enclosed in a plexiglass chamber with a stimulus device consisting of a shock grid attached to the rear of the belt (Panlab, Barcelona, Spain). Mice were run at 10 cm/sec and a 0° of incline for 5 min. Speed was then incremented by 2 cm/sec every 5 min, until mice were exhausted. The distance run and the number of shocks obtained over 5 min intervals were recorded. Mice were considered exhausted and removed from the experiment when they received approximately 20 shocks in a period of 1 min. Control untreated and urolithin A-treated mice were tested and compared for their performance.
Improved muscle performance and endurance is reflected by an ability to run at higher speeds on the treadmill. Mice will seek to avoid the shock and will run despite the increasing speed. At a certain point the mice are unable to keep up with the treadmill speed and are shocked. After reaching the threshold levels of shocks, mice are removed from the treadmill. […]

[1] = system: C57BL/6J mice exposed to chronic unpredictable stress; assay: Morris water maze in chronically stressed mice; format: in vivo; settings: 25 mg/kg/d (FIG. 34)
Experimental: Three weeks before the initiation of the chronic stress protocol mice were separated into four different groups. One group received standard mouse chow diet (Control), while the remaining three groups received varying doses of extract 1011, an extract derived from pomegranate juice. Low dose corresponded to an extract dose of 21 mg/kg/d of gallic acid equivalents of polyphenols (GAE PPE), the medium dose corresponded to an extract dose of 43 mg/kg/d of GAE PPE, the high dose corresponded to an extract dose of 86 mg/kg/d of GAE PPE (see Table 5).
Three weeks before the initiation of the chronic stress protocol, mice were separated into two groups. […]
The unpredictable chronic stress protocol involved exposing animals to a daily stressful situation at an unpredictable moment for 4 weeks (between 8 am and 4 pm, and randomly distributed over the 28 days). […] All animals were weighed and the state of their coat was evaluated on a regular basis (every 3-5 days). […]
Each trial started by introducing the mouse into the maze with the aid of a cup, facing the pool wall, and at one of four possible positions that were randomly balanced between trials and days. The distance between the mouse and the platform was measured at each sampling time, with 25 sampling times collected per second. […]

With `O=c1oc2cc(O)ccc2c2ccc(O)cc12` [urolithin A, 3,8-Dihydroxydibenzo-α-pyrone] the “muscle performance and endurance, treadmill speed” value (normal mice) was “ran at higher speeds than untreated control mice” and the “Morris water maze learning, variability of distance to platform between sequential trials” value [1] was “stabilization of this variability”.
